Data from patent US8183279B2, “1,3-dihydroisoindole derivatives” (Merck Patent Gesellschaft Mit Beschrankter Haftung, priority 2007, dated 2012).

These compounds were tested against T1, Recombinant human HSP90α (Homo sapiens, UniProt P07900) (assay: HSP90 inhibition, [3H]17AAG radioligand filter binding test). Settings: competition with 0.08 μM [3H]17AAG, HSP90 1.5 μg/assay, 22° C., 30 min.
T1 construct: host or cells: E. coli
Source text: The binding of geldanamycin or 17-allylamino-17-demethoxygeldanamycin (17AAG) to HSP90 and competitive inhibition thereof can be utilised in order to determine the inhibitory activity of the compounds according to the invention (Carreras et al. 2003, Chiosis et al. 2002).
In the specific case, a radioligand filter binding test is used. The radioligand used here is tritium-labelled 17-allylaminogeldanamycin,
[3H]17AAG. This filter binding test allows a targeted search for inhibitors which interfere with the ATP binding site.
Recombinant human HSP90α(E. coli expressed, 95% purity);
[3H]17AAG (17-allylaminogeldanamycin, [allylamino-2,3-^3H. Specific activity: 1.11×10^12 Bq/mmol (Moravek, MT-1717);
HEPES filter buffer (50 mM HEPES, pH 7.0, 5 mM MgCl2, BSA 0.01%) Multiscreen FB (1 μm) filter plate (Millipore, MAFBNOB 50).
The 96-well microtitre filter plates are firstly irrigated and coated with 0.1% of polyethylenimine.
The test is carried out under the following conditions:
Reaction temperature 22° C.
Reaction time: 30 min., shaking at 800 rpm
50 mM HEPES HCl, pH 7.0, 5 mM MgCl2, 0.01% (w/v) of BSA
At the end of the reaction, the supernatant in the filter plate is removed by suction with the aid of a vacuum manifold (Multiscreen Separation System, Millipore), and the filter is washed twice.
The filter plates are then measured in a beta counter (Microbeta, Wallac) with scintillator (Microscint 20, Packard).
“% of control” is determined from the “counts per minutes” values, and the IC-50 value of a compound is calculated therefrom.

IC50, 10 to 1000 nM:
CCCCN(C)C(=O)c1cc(C(=O)N2Cc3ccc(O)cc3C2)c(O)cc1O [Compound A1, N-butyl-2,4-dihydroxy-5-(5-hydroxy-1,3-dihydroisoindole-2-carbonyl)-N-methylbenzamide]
CCCCN(C)C(=O)c1cc(C(=O)N2Cc3ccccc3C2)c(O)cc1O [Compound A2, N-butyl-2,4-dihydroxy-5-(1,3-dihydroisoindole-2-carbonyl)-N-methylbenzamide]
CCCCN(C)C(=O)c1cc(C(=O)N2Cc3ccc(OCCN(C)C)cc3C2)c(O)cc1O [Compound A3, N-butyl-5-[5-(2-dimethylaminoethoxy)-1,3-dihydroisoindole-2-carbonyl]-2,4-dihydroxy-N-methylbenzamide]
CCCCN(C)C(=O)c1cc(C(=O)N2Cc3ccc(OCCN4CCOCC4)cc3C2)c(O)cc1O [Compound A6]
CCCCN(C)C(=O)c1cc(C(=O)N2Cc3ccc(OCCN4CCNCC4)cc3C2)c(O)cc1O [Compound A7]
CCCCN(C)C(=O)c1cc(C(=O)N2Cc3ccc(OCCN4CCCCC4)cc3C2)c(O)cc1O [Compound A8]
CCCCN(C)C(=O)c1cc(C(=O)N2Cc3ccc(OCC(N)=O)cc3C2)c(O)cc1O [Compound A32, N-Butyl-5-(5-carbamoylmethoxy-1,3-dihydroisoindole-2-carbonyl)-2,4-dihydroxy-N-methylbenzamide]
CCCCN(C)C(=O)c1cc(C(=O)N2Cc3ccc(OCCCC#N)cc3C2)c(O)cc1O [Compound A33, N-Butyl-5-[5-(3-cyanopropoxy)-1,3-dihydroisoindole-2-carbonyl]-2,4-dihydroxy-N-methylbenzamide]
CCCCN(C)C(=O)c1cc(C(=O)N2Cc3ccc(OCCO)cc3C2)c(O)cc1O [Compound A34, N-Butyl-2,4-dihydroxy-5-[5-(2-hydroxyethoxy)-1,3-dihydroisoindole-2-carbonyl]-N-methylbenzamide]
CCCCN(C)C(=O)c1cc(C(=O)N2Cc3ccc(OCCNC)cc3C2)c(O)cc1O [Compound A35, N-Butyl-2,4-dihydroxy-N-methyl-5-[5-(2-methylaminoethoxy)-1,3-dihydroisoindole-2-carbonyl]benzamide]
CCCCN(C)C(=O)c1cc(C(=O)N2Cc3ccc(-c4ccccc4)cc3C2)c(O)cc1O [Compound A38, N-Butyl-2,4-dihydroxy-N-methyl-5-(5-phenyl-1,3-dihydroisoindole-2-carbonyl)benzamide]
CCCCN(C)C(=O)c1cc(C(=O)N2Cc3ccc(C(=O)OC)cc3C2)c(O)cc1O [Compound A39, Methyl 2-[5-(butylmethylcarbamoyl)-2,4-dihydroxybenzoyl]-2,3-dihydro-1H-isoindole-5-carboxylate]
CCCCN(C)C(=O)c1cc(C(=O)N2Cc3ccc(OCCN(C)CC)cc3C2)c(O)cc1O [Compound A40, N-Butyl-5-{5-[2-(ethylmethylamino)ethoxy]-1,3-dihydroisoindole-2-carbonyl}-2,4-dihydroxy-N-methylbenzamide]
CCCCN(C)C(=O)c1cc(C(=O)N2Cc3ccc(C(=O)N(C)C)cc3C2)c(O)cc1O [Compound A41, N,N'-Dimethyl-2-[5-(butylmethylcarbamoyl)-2,4-dihydroxybenzoyl]-2,3-dihydro-1H-isoindole-5-carboxamide]
CCCCN(C)C(=O)c1cc(C(=O)N2Cc3ccc(C(N)=O)cc3C2)c(O)cc1O [Compound A42]
Cc1ccc(CN(C)C(=O)c2cc(C(=O)N3Cc4ccc(OCCN(C)C)cc4C3)c(O)cc2O)s1 [Compound A43, 5-[5-(2-Dimethylaminoethoxy)-1,3-dihydroisoindole-2-carbonyl]-2,4-dihydroxy-N-methyl-N-(5-methylthiophen-2-ylmethyl)benzamide]
CN(C)CCOc1ccc2c(c1)CN(C(=O)c1cc(C(=O)N(C)Cc3ccco3)c(O)cc1O)C2 [Compound A44, 5-[5-(2-Dimethylaminoethoxy)-1,3-dihydroisoindole-2-carbonyl]-N-furan-2-ylmethyl-2,4-dihydroxy-N-methylbenzamide]
CN(C)CCOc1ccc2c(c1)CN(C(=O)c1cc(C(=O)N(C)Cc3ccccc3)c(O)cc1O)C2 [Compound A45, N-Benzyl-5-[5-(2-dimethylaminoethoxy)-1,3-dihydroisoindole-2-carbonyl]-2,4-dihydroxy-N-methylbenzamide]
CN(C)CCOc1ccc2c(c1)CN(C(=O)c1cc(C(=O)N3Cc4ccccc4C3)c(O)cc1O)C2 [Compound A46, [5-(1,3-Dihydroisoindole-2-carbonyl)-2,4-dihydroxyphenyl]-[5-(2-dimethylaminoethoxy)-1,3-dihydroisoindol-2-yl]methanone]
CCCCN(C)C(=O)c1cc(C(=O)N2Cc3ccc(OCCCNC)cc3C2)c(O)cc1O [Compound A47, N-Butyl-2,4-dihydroxy-N-methyl-5-[5-(3-methylaminopropoxy)-1,3-dihydroisoindole-2-carbonyl]benzamide]
CNCCOc1ccc2c(c1)CN(C(=O)c1cc(C(=O)N(C)Cc3ccc(C)s3)c(O)cc1O)C2 [Compound A48, 2,4-Dihydroxy-N-methyl-5-[5-(2-methylaminoethoxy)-1,3-dihydroisoindole-2-carbonyl]-N-(5-methylthiophen-2-ylmethyl)benzamide]
CNCCOc1ccc2c(c1)CN(C(=O)c1cc(C(=O)N(C)Cc3ccco3)c(O)cc1O)C2 [Compound A49, N-Furan-2-ylmethyl-2,4-dihydroxy-N-methyl-5-[5-(2-methylaminoethoxy)-1,3-dihydroisoindole-2-carbonyl]benzamide]
